The text below walks through data of ChEMBL document CHEMBL1149408, “A QSAR model for in silico screening of MAO-A inhibitors. Prediction, synthesis, and biological assay of novel coumarins” (J Med Chem, 2006).

This assay has as its target Amine oxidase [flavin-containing] A (Rattus norvegicus) (UniProt P21396). Description: Inhibition of MAO-A activity.

Sequence of Amine oxidase [flavin-containing] A (Rattus norvegicus) (P21396 whole entry, looked up): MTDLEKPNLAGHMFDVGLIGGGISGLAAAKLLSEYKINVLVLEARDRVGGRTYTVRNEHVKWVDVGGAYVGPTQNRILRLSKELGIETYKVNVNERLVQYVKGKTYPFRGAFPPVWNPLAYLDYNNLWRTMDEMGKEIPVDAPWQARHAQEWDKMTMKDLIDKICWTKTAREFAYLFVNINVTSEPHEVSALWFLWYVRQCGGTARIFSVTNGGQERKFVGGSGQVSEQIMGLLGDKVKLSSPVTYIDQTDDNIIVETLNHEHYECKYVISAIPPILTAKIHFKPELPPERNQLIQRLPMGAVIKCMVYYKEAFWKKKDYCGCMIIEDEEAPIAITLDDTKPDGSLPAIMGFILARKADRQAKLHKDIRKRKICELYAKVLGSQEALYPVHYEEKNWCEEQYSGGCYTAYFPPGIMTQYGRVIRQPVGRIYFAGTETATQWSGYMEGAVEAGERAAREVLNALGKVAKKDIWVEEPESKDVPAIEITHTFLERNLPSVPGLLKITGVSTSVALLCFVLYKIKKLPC

With `Cc1cc(=O)oc2cc(OC3CCCCC3=O)ccc12` (stereo not given), the IC50 was 43 µM.

Compound `Cc1cc(=O)oc2cc3oc4c(c3cc12)CCC4` showed an IC50 of 11.9 µM.

For the compound `COc1c(O)ccc2cc(N)c(=O)oc12`, the IC50 was greater than 200 µM.

In turn, `COc1cc(OC2CCCCC2=O)c2c(C)cc(=O)oc2c1` (stereo not given) displayed an IC50 greater than 200 µM.

The compound `COc1c(OCC(C)=O)ccc2cc(NC(C)=O)c(=O)oc12` had an IC50 of 6.43 µM.

The compound `Cc1cc(=O)oc2cc(OC3CCCC3=O)ccc12` (stereo not given) showed a concentration for half-maximal inhibition (IC50) of 0.04 µM.

Compound `COc1c(OC2CCCCC2=O)ccc2c(C)cc(=O)oc12` (stereo not given) registered an IC50 of 11.1 µM.

`Cc1coc2cc3oc(=O)c(NC(=O)CN)cc3cc12` showed an IC50 of 12.3 µM.

In turn, `Cc1cc(=O)oc2cc3oc4c(c3cc12)CCCC4` gave an IC50 of 65.2 µM. This IC50 lies about 5.3-fold higher than the previous one.

`CCN(CC)CCCOc1c2occc2cc2ccc(=O)oc12` displayed an IC50 greater than 200 µM.

Compound `COc1c2occc2cc2ccc(=O)oc12` [METHOXSALEN] yielded an IC50 of 85.1 µM. That is a double-digit micromolar value.

With `NCCCOc1c2occc2cc2ccc(=O)oc12`, the 50% inhibitory concentration (IC50) was 2.51 µM.

The compound `COc1c2oc(=O)c(N)cc2cc2c(C)coc12` had an IC50 of 21.7 µM.

As to `COc1cc(OC2CCCCC2=O)cc2oc(=O)cc(C)c12` (stereo not given), it took 21.4 µM to reach half-maximal inhibition (IC50).

The compound `Cc1cc(=O)oc2cc3oc4ccccc4c3cc12` had an IC50 of 7.24 µM.
